Measured values from article PMC7217877, “N-AS-triggered SPMs are direct regulators of microglia in a model of Alzheimer’s disease” (Nature Communications, 2020).
Residue numbers refer to the chain shown, from its start. Several values for one entry are separate records, joined by “and”; a condition that tells them apart may be missing. Identical values can stand only once.

Legend:
COX2 WT = target: T1, COX2 WT (Homo sapiens, UniProt P35354); test: filter binding assay of [14C] N-AS to COX2; conditions: COX2 Control, replicates
T1 construct: His (N); made in house
T1 sequence (P35354 18-604): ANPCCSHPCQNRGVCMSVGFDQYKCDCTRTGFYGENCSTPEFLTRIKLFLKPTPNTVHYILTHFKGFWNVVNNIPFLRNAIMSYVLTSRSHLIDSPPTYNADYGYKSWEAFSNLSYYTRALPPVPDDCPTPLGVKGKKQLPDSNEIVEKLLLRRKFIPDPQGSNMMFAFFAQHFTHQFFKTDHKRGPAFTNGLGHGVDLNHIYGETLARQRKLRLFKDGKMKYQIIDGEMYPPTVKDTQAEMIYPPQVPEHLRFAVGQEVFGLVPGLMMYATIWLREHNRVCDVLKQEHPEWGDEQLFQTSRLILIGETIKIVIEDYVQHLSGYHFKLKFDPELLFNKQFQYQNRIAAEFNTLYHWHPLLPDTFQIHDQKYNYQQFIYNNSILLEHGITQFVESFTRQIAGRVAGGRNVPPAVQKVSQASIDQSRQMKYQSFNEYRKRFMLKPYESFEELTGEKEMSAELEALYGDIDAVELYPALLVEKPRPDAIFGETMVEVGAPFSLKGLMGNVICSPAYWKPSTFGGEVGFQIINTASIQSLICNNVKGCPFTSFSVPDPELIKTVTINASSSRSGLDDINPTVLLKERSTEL
Description: (§1) Single point mutations in SphK1 (R56A, R57A, R24A, R185A, D178A, and F192A) and COX2 (S565A, N181A, T564A, and S567A) were generated using the In-Fusion Cloning Kits (Clontech) and ORF cDNA expression plasmids of human SphK1 and COX2 gene (Sino Biological Inc, HG15679-NH and HG12036-NH), according to the manufacturer’s instructions. The forward and reverse primers described in Supplementary Table 4. The SphK1 WT, SphK1 mutants, COX2 WT, and COX2 mutant plasmids were transformed in the One shot TOP 10 competent cell (Invitrogen). The bacteria were grown in Luria-Bertani (LB, Invitrogen) plates supplemented with 50 μg ml^−1 kanamycin (Sigma-Aldrich) at 37 °C. The bacterial cell pellets were resuspended in lysis buffer containing 20 mM sodium phosphate (GE Healthcare), 500 mM NaCl (GE Healthcare), 20 mM imidazole (pH 7.4) (GE Healthcare), 0.2 mg ml^−1 lysozyme (Sigma-Aldrich), 20 μg ml^−1 DNase I (Roche), 1 mM MgCl2 (Sigma-Aldrich), and 1 mM PMSF (Sigma-Aldrich) before being lysed by sonication and clarified by centrifugation at 15,493×g for 10 min. Proteins were purified from the soluble fraction using His-Spin Trap columns (GE Healthcare) and the binding and acetylation assays were performed.
(§2) Briefly, SphK1 WT and mutant enzymes (1 mU) were resuspended in 100 μl reaction buffer (20 mM HEPES; pH 7.4, 50 mM NaCl, 10 mM MgCl2, 1 mM EGTA, 0.02% Triton-X100, and 100 μM sphingosine, all from Sigma-Aldrich). […] Briefly, COX2 WT and mutant enzymes (1 mU) were resuspended in 100 μl reaction buffer (20 mM HEPES; pH 7.4, 50 mM NaCl, 10 mM MgCl2, 1 mM EGTA, and 0.02% Triton-X100, all from Sigma-Aldrich). Reactions were initiated by adding [^14C] N-AS (1–200 μM (0.1–20 μCi), ARC UK Ltd, ARC-1024) and incubated at 37 °C for 1 h. The reactions were terminated by adding 100 μl of ice-cold reaction buffer containing 5 mM cold N-AS and immediately filtered through P30 filtermat (Perkin-Elmer), followed by five washes.
(§3) The binding velocity was plotted and the Kcat and KM values were calculated from the Michaelis-Menten analysis using the Sigma-plot program (ver 10.0, Systat software Inc.).

COX2 S565A = target: T2, COX2 S565A (Homo sapiens, UniProt P35354, S565A); test: filter binding assay of [14C] N-AS to COX2; conditions: replicates
T2 construct: His (N); made in house
T2 sequence (P35354 18-604 S565A): T1 sequence (P35354 18-604) with S548A
Description: as §1, §2, §3

microsomal stability = type: in vitro ADME; conditions: for half-life at 1 µM: pH 7.4
Protocol: An N-AS stock solution (10 mM dissolved in methanol) was diluted with methanol to make a concentration of 100 μM. A 10 μl aliquot of this solution was then diluted using 90 μl of 100 mM potassium phosphate buffer (pH 7.4). 10 μl of this N-AS solution was incubated at 37 °C with human or mouse liver microsomes (80 μl of 0.625 mg protein ml^−1 phosphate buffer) for 10 min before adding of 10 μl of an NADPH regenerating system to start the reaction. Reactions were stopped at 0, 15, 30, 60, and 90 min time-points by the addition of 200 μl cold acetonitrile (containing propranolol as internal standard at 20 ng ml^−1) and centrifuged at 17,968×g for 10 min. A 2 μl aliquot of the supernatant was injected into the LC-MS/MS system. The ratio of peak area of test compound/internal standard was used to determine the % remaining of N-AS over time.

- % of remaining after 0.5 h (microsomal stability; Mouse liver microsomes): 60.7%
- half-life at 1 µM (microsomal stability; Human liver microsomes): 36 min
- half-life at 1 µM (microsomal stability; Mouse liver microsomes): 54 min
SMILES: CCCCCCCCCCCCC/C=C/[C@@H](O)[C@H](CO)NC(C)=O [N-AS, N-((2S,3R,E)-1,3-Dihydroxyoctadec-4-en-2-yl)acetamide]
- binding velocity (Vbinding) (COX2 WT; 1 uM (100 pmol)): 0.888 nM/min and 1.293 nM/min and 0.920 nM/min
- binding velocity (Vbinding) (COX2 WT; 5 uM (500 pmol)): 5.664 nM/min and 7.362 nM/min and 11.711 nM/min
- binding velocity (Vbinding) (COX2 WT; 10 uM (1000 pmol)): 14.955 nM/min and 10.446 nM/min and 14.278 nM/min
- binding velocity (Vbinding) (COX2 WT; 20 uM (2000 pmol)): 30.848 nM/min and 29.462 nM/min and 25.197 nM/min
- binding velocity (Vbinding) (COX2 WT; 100 uM (10000 pmol)): 52.281 nM/min and 47.667 nM/min and 52.002 nM/min
- binding velocity (Vbinding) (COX2 WT; 200 uM (20000 pmol)): 58.338 nM/min and 57.809 nM/min and 65.044 nM/min
- binding velocity (Vbinding) (COX2 S565A; 1 uM): 0.294 nM/min and 0.145 nM/min and 0.375 nM/min
- binding velocity (Vbinding) (COX2 S565A; 5 uM): 4.092 nM/min and 3.850 nM/min and 4.567 nM/min
- binding velocity (Vbinding) (COX2 S565A; 10 uM): 6.171 nM/min and 6.000 nM/min and 6.819 nM/min
- binding velocity (Vbinding) (COX2 S565A; 20 uM): 11.138 nM/min and 12.964 nM/min and 8.904 nM/min
- binding velocity (Vbinding) (COX2 S565A; 100 uM): 19.545 nM/min and 19.934 nM/min and 20.173 nM/min
- binding velocity (Vbinding) (COX2 S565A; 200 uM): 28.985 nM/min and 29.725 nM/min and 29.810 nM/min
